Calls of active or inactive are those of the source. How the calls were made is not given here.

Consider 100 compounds from PubChem BioAssay AID1552 (Sanford-Burnham Center for Chemical Genomics, 2009).

The assay deals with Ubiquitin-conjugating enzyme E2 N (Homo sapiens) (UniProt P61088). As to the kind of experiment: NMR detection of UBE2N ligand binding – biophysical, purified protein (AID 1552). Particulars: NMR binding to purified UBE2N.
Sequence of Ubiquitin-conjugating enzyme E2 N (Homo sapiens) (P61088 whole entry, looked up): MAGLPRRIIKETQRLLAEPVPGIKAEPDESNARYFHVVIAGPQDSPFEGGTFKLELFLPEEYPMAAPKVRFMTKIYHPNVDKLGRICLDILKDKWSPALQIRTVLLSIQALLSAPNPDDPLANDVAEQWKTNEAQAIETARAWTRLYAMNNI
In the case of `CC(=O)OC1CC[C@@]2(C)C(CCC3C2CC[C@]2(C)C(C4=CC(=O)OC4)C(OC(C)=O)CC32O)C1` (stereo not given in full), the Kd is > 4 mM (inactive). As for `CCOC(=O)c1cnc2sccn2c1=O`, the Kd is > 4 mM (inactive). On to `CCn1nnc2c(NCc3ccccn3)ncnc21`, for which the Kd is > 4 mM (inactive). The value for `c1cc(C(N2CCOCC2)N2CCOCC2)ccn1` was > 4 mM (inactive); that for `O=C(O)Cc1n[nH]c(=O)c2ccccc12` was > 4 mM (inactive). The value for `O=C(O)c1ccc(-c2cccs2)cc1` was > 4 mM (inactive); that for `O=C(O)CC[N+](=O)[O-]` was > 4 mM (inactive). Under `CN1CCc2c(sc(N)c2C#N)C1` stands > 4 mM (inactive). For the compound `CP(C)(=O)c1cccc(C(=O)O)c1`, the Kd was > 4 mM (inactive).

For the compound `Nc1nc2n(c1C(=O)c1ccccc1)CCC2`, the Kd is > 4 mM (inactive). As to `CCOC(=O)c1c(C)nc2cc(C)ccn12`, the Kd was > 4 mM (inactive). Turning to `Cn1ncc(NC(=O)Nc2ccc(F)cc2F)c1C(N)=O`, the Kd was > 4 mM (inactive).

For the compound `CN(C)C(=O)Oc1ccc(-c2nnco2)cc1`, the Kd is > 4 mM (inactive). Under `CCOC(=O)Cn1cnc2c1c(=O)[nH]c(=O)n2C` stands > 4 mM (inactive); under `C=C[C@](C)(O)CCC=C(C)C`, > 4 mM (inactive); under `CCCn1c(C)cc(=O)[nH]c1=O`, > 4 mM (inactive). Consider `CCN1CCC2(CC1)CC1CC3C=CC1(CN2C(C)=O)O3` (stereo not given), for which the Kd is > 4 mM (inactive). The value for `O=C(Nn1cnnc1)c1csc2c1CCCC2` was > 4 mM (inactive). The value for `Cc1cccc(NC(=O)CN2C(=O)CNC2=O)c1` was > 4 mM (inactive); that for `COC1=CC23CCCN2CCc2cc4c(cc2C3C1O)OCO4` (stereo not given) was > 4 mM (inactive); that for `Cc1cc(C)n2nc(C(=O)Nc3cccnc3)nc2n1` was > 4 mM (inactive).

For `CN(C)C(=O)Nc1ccc2c(c1)nnn2C`, the Kd was > 4 mM (inactive). Take `C[C@@H]1C(=O)OC2[C@H](O)C34[C@@H]5OC(=O)[C@@]3(O[C@@H]3OC(=O)[C@H](O)[C@@]34[C@H](C(C)(C)C)[C@H]5O)[C@]21O` (stereo not given in full): the Kd is > 4 mM (inactive). Under `CC(C)=CCc1c2c(c3occ(-c4ccc(O)c(O)c4)c(=O)c3c1O)C=CC(C)(C)O2` stands > 4 mM (inactive); under `O=c1c(O)cc([C@H]2Oc3cc(O)cc(O)c3C[C@H]2O)cc2c([C@H]3Oc4cc(O)cc(O)c4C[C@H]3O)cc(O)c(O)c12`, > 4 mM (inactive); under `OC1CCN(Cc2ccc[nH]2)CC1`, > 4 mM (inactive). For the compound `CCC(=O)NC(=S)Nc1ccc(C(N)=O)cc1`, the Kd is > 4 mM (inactive).

As for `CS(=O)(=O)Cc1ccccc1`, the Kd is > 4 mM (inactive). The value for `O=C(O)CCC1NCC2CC1CN1CCCCC21` (stereo not given) was > 4 mM (inactive); that for `Cc1cccc(N2CCN(C(=O)c3ccncc3)CC2)c1C` was > 4 mM (inactive); that for `c1ccc(-c2noc(-c3ccc4c(c3)OCO4)n2)nc1` was > 4 mM (inactive). Under `Cn1cccc1C(=O)NS(=O)(=O)c1ccccc1Cl` stands > 4 mM (inactive). With `COC(=O)C1=C(C)N(c2cccc(C(C)=O)c2)C(=O)C1`, the Kd is > 4 mM (inactive).

Take `CNS(=O)(=O)c1ccc2[nH]c(=O)[nH]c2c1`: the Kd is > 4 mM (inactive). Under `O=C(O)c1c[nH]c2ccccc12` stands > 4 mM (inactive). `NCc1oc(-c2ccccc2)cc1C(=O)O`: the Kd was > 4 mM (inactive). The value for `COC(=O)C[C@@H]1C2(C)C(=O)[C@@H](CC3C2CC[C@]2(C)C3CC(=O)O[C@H]2c2ccoc2)[C@H](OC(C)=O)C1(C)C` (stereo not given in full) was > 4 mM (inactive); that for `Cc1cc(=O)oc2cc(O)c(O)cc12` was > 4 mM (inactive).

On to `CC1(C)N=C2C(=[N+]1[O-])CCC/C2=N\O`, for which the Kd is > 4 mM (inactive). The value for `COc1ccccc1-c1c(C)nn2c(C)c(C(C)=O)cnc12` was > 4 mM (inactive). Under `Cc1[nH]c2ccccc2c1C=Nn1cncn1` stands > 4 mM (inactive).

In the case of `O=C(O)CCn1c(=O)oc2ccccc21`, the Kd was > 4 mM (inactive). Under `COc1cccc(/C=N/N=C2/NC(=O)CS2)c1` stands > 4 mM (inactive); under `COc1ccc([C@H]2COc3c(ccc(O)c3OC)C2)c(OC)c1O`, > 4 mM (inactive); under `CC1CCN(C(=S)c2ccccc2O)CC1`, > 4 mM (inactive). The value for `COC1(C)CCC2OC2(C)CCC2C1CC2(C)C` (stereo not given) was > 4 mM (inactive); that for `CC(C)(CO)NC(=O)c1ccccc1F` was > 4 mM (inactive); that for `CCOc1ccc(C(=O)c2ccncc2)cc1` was > 4 mM (inactive). Under `O=c1[nH]c(=S)c2c(n1-c1ccccc1)CCC2` stands > 4 mM (inactive); under `O=c1c(O)c(-c2ccccc2)oc2cc(O)ccc12`, > 4 mM (inactive); under `CN(C)c1ccc(/C=C2/NC(=S)NC2=O)cc1`, > 4 mM (inactive).

With `Cc1onc(-c2c(Cl)cccc2Cl)c1C(N)=O`, the Kd was > 4 mM (inactive). Under `Cc1cc(C(=O)Nc2cccnc2)no1` stands > 4 mM (inactive); under `Cc1csc2nc(N)nn12`, > 4 mM (inactive); under `Cc1ccc(CCC(N)=O)o1`, > 4 mM (inactive). The value for `Cn1nc(C(=O)NC2CCCCC2)c2ccccc2c1=O` was > 4 mM (inactive); that for `O=C(O)c1cc2ccccc2o1` was > 4 mM (inactive); that for `CNc1nc(C)nc(-n2nc(C)cc2C)n1` was > 4 mM (inactive). The value for `O=C(Nc1ccc2c(c1)OCO2)c1cnn2cccnc12` was > 4 mM (inactive); that for `NN1C(=O)CSC1=Nc1ccccc1` was > 4 mM (inactive); that for `Nc1nnc(-c2ccncc2)s1` was > 4 mM (inactive). In the case of `CC(=O)c1cccc(NS(=O)(=O)N(C)C)c1`, the Kd is > 4 mM (inactive).

On to `COc1ccc(C)cc1S(N)(=O)=O`, for which the Kd was > 4 mM (inactive). The value for `Cc1nn(-c2ccccc2)nc1CO` was > 4 mM (inactive); that for `C[C@H]1[C@H](C)CC[C@]2(C(=O)O)CC[C@]3(C)C(=CCC4[C@@]5(C)C[C@@H](O)[C@H](O)[C@@](C)(CO)C5[C@H](O)C[C@]43C)[C@H]12` (stereo not given in full) was > 4 mM (inactive); that for `O=C(Nc1ccc2c(c1)CCC2)c1cnccn1` was > 4 mM (inactive). Under `Cn1nnc2cc(CN)ccc21` stands > 4 mM (inactive); under `CCC(=O)OC1[C@@H]2CC3=C4CC(=O)O[C@@H](c5ccoc5)[C@]4(C)CCC3C(C)(C2=O)[C@@H](CC(=O)OC)C1(C)C` (stereo not given in full), > 4 mM (inactive). Take `CN(C)N1C(=O)C2C3C=CC(O3)C2C1=O` (stereo not given): the Kd is > 4 mM (inactive). Regarding `C(=Nn1cnnc1)c1ccccc1`, the Kd was > 4 mM (inactive). Under `Oc1ccccc1N=Cc1cccnc1` stands > 4 mM (inactive); under `S=C=NCc1ccccc1`, > 4 mM (inactive). The value for `O=C1CC(=O)N(c2ccccc2)c2ccccc21` was > 4 mM (inactive). As for `CC(=O)OC1CCC2(C)C3CC(=O)C4(C)C(CC5OC6(CCC(C)CO6)[C@@H](C)C54)C3CC[C@H]2C1` (stereo not given in full), the Kd was > 4 mM (inactive). Under `Cc1nnc(NCCO)[nH]c1=O` stands > 4 mM (inactive).

Take `O=C(NCc1ccccn1)c1ccccc1Cl`: the Kd is > 4 mM (inactive). The value for `Nc1cc(-c2ccco2)[nH]n1` was > 4 mM (inactive); that for `O=c1/c(=C\c2cccnc2)sc2nc3ccccc3n12` was > 4 mM (inactive). Under `Cc1cc(N)n(C2CCOC(C)(C)C2)n1` (stereo not given) stands > 4 mM (inactive). On to `NC(=O)C1CCN(C(=S)c2ccccc2)CC1`, for which the Kd was > 4 mM (inactive). The value for `O=c1ccc2c([nH]1)CCCC2` was > 4 mM (inactive); that for `CSc1nc(C)cc(-n2ccc(=O)[nH]c2=O)n1` was > 4 mM (inactive). With `CS(=O)(=O)Nc1cc2c3c(c1)CCN3C(=O)CC2`, the Kd was > 4 mM (inactive). Under `Cn1ccc(NC(=S)NC2CCCC2)n1` stands > 4 mM (inactive); under `O=C(O)Cn1c(C(F)(F)F)nc2ccccc21`, > 4 mM (inactive); under `NC12CC3CC(C1)CC(O)(C3)C2`, > 4 mM (inactive).

`O=C(O)C1CC(C2CCCCN2)CN2CCCCC12` (stereo not given): the Kd is > 4 mM (inactive).

In the case of `O=c1c(Cl)c(NCCO)ncn1-c1ccccc1`, the Kd is > 4 mM (inactive). Under `CC(=O)Nc1ccccc1-c1ccccc1NC(C)=O` stands > 4 mM (inactive); under `C[C@H]1C(=O)CCC2[C@]3(C)CC[C@@]4(C)C5CC(C)(C)CC[C@]5(C)CC[C@]4(C)C3CC[C@@]21C` (stereo not given in full), > 4 mM (inactive).

Consider `CC(C)=CCCC1(C)C=Cc2c(O)c3c(c(CC=C(C)C)c2O1)OC12C(=CC4CC1C(C)(C)OC2(C/C=C(/C)C(=O)O)C4O)C3=O` (stereo not given), for which the Kd is > 4 mM (inactive). Under `Cc1noc(C)c1CSc1nc2ccccc2[nH]1` stands > 4 mM (inactive). As to `CC1(C)Cc2c(C#N)c(N)n(-c3ccccc3)c(=O)c2CO1`, the Kd was > 4 mM (inactive).

Consider `COC(=O)c1sccc1S(=O)(=O)N1CCCC1`, for which the Kd was > 4 mM (inactive).

As for `CNS(=O)(=O)c1cccs1`, the Kd was > 4 mM (inactive). The value for `CC(=O)O[C@@H]1C[C@@]2(C)[C@H](c3ccoc3)C[C@H]3O[C@]32[C@]2(C)C(=O)C(O)=C3C(C)(C)C(=O)C=C[C@]3(C)C12` (stereo not given in full) was > 4 mM (inactive). Take `O=C(Cc1c(F)cccc1Cl)Nc1cccnc1`: the Kd is > 4 mM (inactive). For the compound `O=C(Nc1ccc(N2CCOCC2)cc1)c1cnsn1`, the Kd was > 4 mM (inactive). For the compound `Cc1nn(-c2ccccc2C(=O)O)c(=O)c2ccccc12`, the Kd is > 4 mM (inactive). The value for `CC(C)=CCOc1cc2oc(=O)ccc2cc1O` was > 4 mM (inactive).
